Measurements: patent US9546162B2, “Compounds and methods for skin repair” (Allergan, Inc., priority 2013, dated 2017)
Read-outs that look alike come from different tables or passages of the source.

Columns and labels:
EP2 [1] = target: T1, EP2 (Homo sapiens (Human), UniProt P43116); assay: EP2 competition binding (Ki), [3H]PGE2; conditions: EP2, HEK 293 cells
Method: Competition binding experiments were performed in a medium containing Hank's balanced salt solution, Hepes 20 mM, pH 7.3, membranes (˜60 μg protein) or 2×10^5 cells from HEK 293 cells stably expressing human EP2 receptors, [^3H]PGE2 (10 nM) and various concentrations of test compounds in a total volume of 300 μl. Reaction mixtures were incubated at 23° C. for 60 min, and were filtered over Whatman GF/B filters under vacuum. Filters were washed three times with 5 ml ice-cold buffer containing 50 mM Tris/HCl (pH 7.3). Non-specific binding was estimated in the presence of excess unlabeled PGE2 (10 μM). Binding data fitted to the binding model for a single class of binding sites, using nonlinear regression analysis.
(§1) HEK-293 cells stably expressing the human or feline FP receptor, or EP1, EP2, or EP4 receptors were washed with TME buffer, scraped from the bottom of the flasks, and homogenized for 30 sec using a Brinkman PT 10/35 polytron. TME buffer was added to achieve a final 40 ml volume in the centrifuge tubes (the composition of TME is 100 mM TRIS base, 20 mM MgCl2, […]; 10N HCl is added to achieve a pH of 7.4).
(§2) The cell homogenate was centrifuged at 19000 r.p.m. for 20 min at 4° C. using a Beckman Ti-60 rotor. The resultant pellet was resuspended in TME buffer to give a final 1 mg/ml protein concentration, as determined by Biorad assay. Radioligand binding competition assays vs. [^3H-]17-phenyl PGF2a (5 nM) were performed in a 100 μl volume for 60 min. Binding reactions were started by adding plasma membrane fraction. The reaction was terminated by the addition of 4 ml ice-cold TRIS-HCl buffer and rapid filtration through glass fiber GF/B filters using a Brandel cell harvester. The filters were washed 3 times with ice-cold buffer and oven dried for one hour.
(§3) [^3H—] PGE2 (specific activity 180 Ci mmol) was used as the radioligand for EP receptors. [^3H] 17-phenyl PGF2a was employed for FP receptor binding studies. Binding studies employing EP1, EP2, EP4 and FP receptors were performed in duplicate in at least three separate experiments. A 200 μl assay volume was used. Incubations were for 60 min at 25° C. and were terminated by the addition of 4 ml of ice-cold 50 mM TRIS-HCl, followed by rapid filtration through Whatman GF/B filters and three additional 4 ml washes in a cell harvester (Brandel). Competition studies were performed using a final concentration of 5 nM [^3H]-PGE2, or 5 nM [^3H] 17-phenyl PGF2a and non-specific binding determined with 10^−5M of unlabeled PGE2, or 17-phenyl PGF2a, according to receptor subtype studied.

EP4 [2] = target: T2, EP4 (Homo sapiens (Human), UniProt P35408); assay: EP4 cAMP EC50; format: cell-based
T2 sequence (P35408 whole entry): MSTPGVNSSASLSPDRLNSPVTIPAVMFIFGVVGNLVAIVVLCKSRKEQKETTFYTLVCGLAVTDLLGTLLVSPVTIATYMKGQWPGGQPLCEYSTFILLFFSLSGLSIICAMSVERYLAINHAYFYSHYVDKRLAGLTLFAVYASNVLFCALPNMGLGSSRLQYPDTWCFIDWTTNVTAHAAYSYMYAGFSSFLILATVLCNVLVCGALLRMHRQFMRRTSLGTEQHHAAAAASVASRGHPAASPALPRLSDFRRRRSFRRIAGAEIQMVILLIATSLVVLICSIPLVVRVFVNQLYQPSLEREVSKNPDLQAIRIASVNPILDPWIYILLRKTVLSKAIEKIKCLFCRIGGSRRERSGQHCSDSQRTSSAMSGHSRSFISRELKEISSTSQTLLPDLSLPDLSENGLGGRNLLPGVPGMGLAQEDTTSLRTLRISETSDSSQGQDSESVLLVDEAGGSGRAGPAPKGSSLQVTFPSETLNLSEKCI

EP4 [3] = target: T2, EP4; assay: EP4 radioligand binding (Ki), [3H]PGE2; conditions: EP4, HEK-293 membranes
Method: as §1, §2, §3

EP2 [4] = target: T1, EP2; assay: EP2 cAMP EC50; format: cell-based

T1 sequence (P43116 whole entry): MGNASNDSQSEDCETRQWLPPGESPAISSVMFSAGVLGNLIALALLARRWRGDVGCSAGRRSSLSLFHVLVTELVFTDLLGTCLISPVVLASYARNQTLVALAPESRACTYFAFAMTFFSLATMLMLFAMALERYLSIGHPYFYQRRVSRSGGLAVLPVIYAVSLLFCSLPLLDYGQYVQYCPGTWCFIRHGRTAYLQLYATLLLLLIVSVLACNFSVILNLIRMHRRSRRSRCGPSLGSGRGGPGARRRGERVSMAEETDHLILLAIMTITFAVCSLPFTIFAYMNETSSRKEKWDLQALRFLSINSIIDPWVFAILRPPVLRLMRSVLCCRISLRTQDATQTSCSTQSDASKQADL

| Ki (EP2 [1]) | EC50 (EP4 [2]) | EP4 Ki (EP4 [3]; read-out: EP4 Ki EC50) | EC50 (EP2 [4]) | EP4 cAMP EC50 (EP4 [2]) | EP4 Ki (EP4 [3]) | EP2 Ki (EP2 [1]) | SMILES |
| --- | --- | --- | --- | --- | --- | --- | --- |
| 0.002 µM | 0.0072 µM | 0.003 µM | – | – | – | – | COc1cc(CC2CCc3cccc(CCc4ccc(C(=O)O)cc4)c32)cc(OC)c1 (stereo not shown) [Entry 1] |
| 0.095 µM | 0.007 µM | 0.042 µM | 0.028 µM | – | – | – | COc1cc(/C=C2\CCc3cccc(CCc4ccc(C(=O)O)cc4)c32)cc(OC)c1 [Entry 2] |
| 0.116 µM | 0.043 µM | 0.09 µM | 0.13 µM | – | – | – | COc1cc(CC2=CCCc3cccc(CCc4ccc(C(=O)O)cc4)c32)cc(OC)c1 [Entry 3] |
| 0.061 µM | 0.071 µM | 0.052 µM | – | – | – | – | COc1ccc(OC)c(CC2=CCc3cccc(CCc4ccc(C(=O)O)cc4)c32)c1 [Entry 4] |
| 0.053 µM | 0.562 µM | 0.251 µM | – | – | – | – | COc1cccc(CC2=CCc3cccc(CCc4ccc(C(=O)O)cc4)c32)c1OC [Entry 6] |
| – | – | 0.174 µM | – | – | – | – | O=C(O)c1ccc(CCc2cccc3c2N(Cc2ccc4ccccc4c2)CC3)cc1 [Entry 6] |
| 0.02 µM | 0.033 µM | 0.034 µM | 0.161 µM | – | – | – | COc1ccc(CC2=CCc3cccc(CCc4ccc(C(=O)O)cc4)c32)cc1OC [Entry 7] |
| – | – | 5.85 µM | – | – | – | – | O=C(O)c1ccc(CCc2cccc3c2N(Cc2cc(OCc4ccccc4)cc(OCc4ccccc4)c2)CC3)cc1 [Entry 7] |
| 0.067 µM | 0.107 µM | 0.071 µM | 0.057 µM | – | – | – | COc1ccccc1CC1=CCc2cccc(CCc3ccc(C(=O)O)cc3)c21 [Entry 8] |
| – | – | 0.453 µM | – | – | – | – | O=C(O)c1ccc(CCc2cccc3c2N(Cc2ccc4c(c2)OCO4)CC3)cc1 [Entry 8] |
| – | – | 0.453 µM | – | – | – | – | COc1cc(CN2CCCc3cccc(CCc4ccc(C(=O)O)cc4)c32)cc(OC)c1 [Entry 9] |
| 0.027 µM | 0.093 µM | 0.195 µM | 0.114 µM | – | – | – | COc1ccc(CC2=CCc3cccc(CCc4ccc(C(=O)O)cc4)c32)cc1 [Entry 9] |
| – | – | – | – | > 10 µM | > 10 µM | – | COc1cccc(CCN2Cc3cccc(CCc4ccc(C(=O)O)cc4)c3C2)c1 [Entry 10] |
| 0.018 µM | 0.023 µM | 0.056 µM | 0.002 µM | – | – | – | O=C(O)c1ccc(CCc2cccc3c2C(Cc2cc(Cl)cc(Cl)c2)=CC3)cc1 [Entry 10] |
| – | – | – | – | > 10 µM | – | – | COc1cccc(CN2Cc3cccc(CCc4ccc(C(=O)O)cc4)c3C2)c1 [Entry 11] |
| 0.006 µM | 0.22 µM | 0.24 µM | 0.013 µM | – | – | – | Cc1cc(C)cc(CC2=CCc3cccc(CCc4ccc(C(=O)O)cc4)c32)c1 [Entry 11] |
| 0.083 µM | 0.041 µM | 0.052 µM | 0.025 µM | – | – | – | COc1cc(CC2=CCc3c(F)ccc(CCc4ccc(C(=O)O)cc4)c32)cc(OC)c1 [Entry 12] |

| Ki (EP2 [1]) | EC50 (EP4 [2]) | EP4 Ki (EP4 [3]; read-out: EP4 Ki EC50) | EC50 (EP2 [4]) | EP4 cAMP EC50 (EP4 [2]) | EP4 Ki (EP4 [3]) | EP2 Ki (EP2 [1]) | SMILES |
| --- | --- | --- | --- | --- | --- | --- | --- |
| 0.469 µM | 0.016 µM | 0.154 µM | – | – | – | – | COc1cc(CC2CCc3cccc(OCc4ccc(C(=O)O)cc4)c32)cc(OC)c1 (stereo not shown) [Entry 13] |
| 0.047 µM | – | 0.161 µM | – | – | – | – | COc1cc(CN2CCc3cccc(CCc4ccc(C(=O)O)s4)c32)cc(OC)c1 [Entry 13] |
| – | – | 1.49 µM | – | > 10 µM | – | > 10 µM | COc1cc(/C=C2\CCc3cccc(OCc4ccc(C(=O)O)cc4)c32)cc(OC)c1 [Entry 14] |
| 0.003 µM | 0.001 µM | 0.0008 µM | 0.011 µM | – | – | – | COc1cc(CC2=CCc3cccc(CCc4ccc(C(=O)O)cc4)c32)cc(OC)c1 [Entry 15] |
| – | 3.13 µM | – | – | – | – | – | COc1cccc(Cn2ccc3cccc(CCc4ccc(C(=O)O)cc4)c32)c1 [Entry 15] |
| 1.7 µM | – | 0.469 µM | – | – | – | – | COc1cc(CC2=CCc3ccc(OC)c(CCc4ccc(C(=O)O)cc4)c32)cc(OC)c1 [Entry 16] |
| – | – | – | – | > 10 µM | – | > 10 µM | COc1cccc(CC(=O)N2CCc3cccc(CCc4ccc(C(=O)O)cc4)c32)c1 [Entry 17] |
| 0.008 µM | 0.296 µM | 0.736 µM | – | – | – | – | O=C(O)c1ccc(CCc2cccc3c2C(Cc2cc(C(F)(F)F)cc(C(F)(F)F)c2)=CC3)cc1 [Entry 17] |
| 0.027 µM | 0.057 µM | 0.134 µM | 0.006 µM | – | – | – | O=C(O)c1ccc(CCc2cccc3c2C(Cc2cc(F)cc(F)c2)=CC3)cc1 [Entry 18] |
| 0.018 µM | 0.002 µM | 0.0004 µM | 0.036 µM | – | – | – | COc1cc(CC2=CCc3cc(F)cc(CCc4ccc(C(=O)O)cc4)c32)cc(OC)c1 [Entry 19] |
| 0.776 µM | – | 8.23 µM | – | > 10 µM | – | – | COc1cc(OC)cc(S(=O)(=O)N2CCc3cccc(CCc4ccc(C(=O)O)cc4)c32)c1 [Entry 19] |
| – | – | 1.23 µM | – | – | – | > 10 µM | COc1cc(CC2=CCc3cccc(-c4cccc(/C=C/C(=O)O)c4)c32)cc(OC)c1 [Entry 20] |
| – | – | – | – | > 10 µM | > 10 µM | – | COc1cccc(S(=O)(=O)N2CCc3cccc(CCc4ccc(C(=O)O)cc4)c32)c1 [Entry 20] |
| 4.77 µM | – | 1.2 µM | – | > 10 µM | – | – | COc1cc(CC2=CCc3cccc(/C=C/c4ccc(C(=O)O)cc4)c32)cc(OC)c1 [Entry 21] |
| – | – | 1.17 µM | – | – | – | > 10 µM | COc1cc(CC2=CCc3cccc(-c4cccc(OCC(=O)O)c4)c32)cc(OC)c1 [Entry 22] |
| – | – | 4.47 µM | – | > 10 µM | – | > 10 µM | COc1cc(CC2=CCc3cccc(-c4ccc(OCC(=O)O)cc4)c32)cc(OC)c1 [Entry 23] |
| – | – | 3.6 µM | – | > 10 µM | – | > 10 µM | COc1cc(CC2=CCc3cccc(C#Cc4ccc(C(=O)O)cc4)c32)cc(OC)c1 [Entry 24] |
